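1) Cells in 96-well plates. 2) Compound, 48 h, 5 concentrations. 3) Linear interpolation between surrounding doses. 4) Unreached endpoint = highest concentration. At the TGI there is no net growth.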 A value given as a limit tells only on which side of the number the result lay.

Some test systems named below: OVCAR-3 ovarian; MOLT-4 leukemia; A498 renal; COLO 205 colon; A549 NSCLC; ACHN renal; SF-268 CNS.
Holding throughout (experiment): NCI tumour cell line growth inhibition, 48 h

For `COc1cc2c(c(OC)c1OC)-c1[nH]ncc1CC2`, the TGI in the experiment with OVCAR-3 ovarian, in the experiment on MOLT-4 leukemia, in the experiment with A498 renal, in the experiment with COLO 205 colon, in the experiment on A549 NSCLC and in the experiment on ACHN renal was greater than 100 µM in each case. Moreover, the TGI in the experiment on SF-268 CNS was greater than 100 µM.
With `O=c1[nH]c(Br)nc2c(Br)c[nH]c12`, the TGI with OVCAR-3 ovarian, with MOLT-4 leukemia, with A498 renal, in the experiment with COLO 205 colon, in the experiment with A549 NSCLC and in the experiment with ACHN renal was greater than 100 µM each time. In the experiment with SF-268 CNS, this molecule displayed a TGI greater than 100 µM.
For `Cn1c(CCC#N)nc2ccc(Br)cc2c1=O`, the TGI with MOLT-4 leukemia, in the experiment on A498 renal, with COLO 205 colon, in the experiment on A549 NSCLC, with ACHN renal and with SF-268 CNS was greater than 100 µM throughout.
Regarding `Cc1ccccc1C(=O)Oc1ccc(Oc2ccccc2)cc1`, the TGI in the experiment with OVCAR-3 ovarian, in the experiment with MOLT-4 leukemia, in the experiment with A498 renal, with COLO 205 colon, in the experiment with A549 NSCLC and with ACHN renal was greater than 100 µM each time. Besides, the TGI with SF-268 CNS is greater than 100 µM.
For the molecule `O=C(OCCOCBr)c1ccccc1`, the TGI in the experiment on OVCAR-3 ovarian, in the experiment with MOLT-4 leukemia, in the experiment on A498 renal, in the experiment with COLO 205 colon, with A549 NSCLC and in the experiment on ACHN renal was greater than 100 µM throughout. In the experiment with SF-268 CNS, this molecule came in with a TGI greater than 100 µM.
For `C(=C\c1csnn1)/c1cccnc1`, the TGI in the experiment on OVCAR-3 ovarian, in the experiment on MOLT-4 leukemia, in the experiment on A498 renal, with COLO 205 colon, with A549 NSCLC and in the experiment with ACHN renal was greater than 100 µM throughout. Moreover, the TGI in the experiment with SF-268 CNS was greater than 100 µM.
In the case of `CC(=O)N1CC2Nc3ccccc3C2CC1CO` (stereo not drawn), the TGI in the experiment with OVCAR-3 ovarian, with MOLT-4 leukemia, in the experiment with A498 renal, in the experiment with COLO 205 colon, in the experiment with A549 NSCLC and in the experiment with ACHN renal was greater than 100 µM throughout. Moreover, in the experiment on SF-268 CNS, the TGI is greater than 100 µM.
With `CCCNCc1nc2ccc(Br)cc2c(=O)n1CCC`, the TGI is 32.5 µM in the experiment with OVCAR-3 ovarian; greater than 100 µM in the experiment on MOLT-4 leukemia; 32 µM with A498 renal; 27.7 µM with COLO 205 colon; 35 µM in the experiment on A549 NSCLC; 29.6 µM with ACHN renal. In the experiment on SF-268 CNS, this molecule registered a TGI of 26.9 µM.
Take `Nc1ccc(Nc2nc(F)nc(-c3c4ccccc4c4n3CCS4)n2)cc1`: the TGI amounted to 34.7 µM in the experiment with OVCAR-3 ovarian; 50.9 µM in the experiment with MOLT-4 leukemia; 41.5 µM with COLO 205 colon; 31.2 µM in the experiment with A549 NSCLC; 25.3 µM in the experiment with ACHN renal; 37.1 µM in the experiment on SF-268 CNS.
Consider `Cc1ccc(C)c(NC(=O)c2cc(-c3ccc([N+](=O)[O-])cc3)nc(N)n2)c1`, for which the TGI with OVCAR-3 ovarian, in the experiment on MOLT-4 leukemia, in the experiment with A498 renal, with COLO 205 colon, in the experiment on A549 NSCLC and with ACHN renal was greater than 100 µM throughout. Moreover, the TGI in the experiment with SF-268 CNS is greater than 100 µM.
Regarding `COC(OC)c1cccc2c1C1(O)CCC3(CC21)OCCCCO3` (stereo not drawn), the TGI in the experiment with OVCAR-3 ovarian, with MOLT-4 leukemia, in the experiment with A498 renal, with COLO 205 colon, in the experiment on A549 NSCLC and with ACHN renal was greater than 100 µM throughout. The TGI in the experiment on SF-268 CNS was greater than 100 µM.
In the case of `O=C(CCC(=O)Nc1ccc(Cl)cc1)CC(=O)c1ccc(F)cc1`, the TGI in the experiment on OVCAR-3 ovarian, with MOLT-4 leukemia, in the experiment on COLO 205 colon, in the experiment on A549 NSCLC, in the experiment on ACHN renal and with SF-268 CNS was greater than 100 µM each time.
For `O=c1c2ccc3cccc4c(=O)cc(c5ccccc15)-c2c34`, the TGI with OVCAR-3 ovarian, in the experiment with MOLT-4 leukemia, in the experiment with A498 renal, in the experiment with COLO 205 colon, with A549 NSCLC and in the experiment with ACHN renal was greater than 100 µM in each case. Also, the TGI in the experiment on SF-268 CNS is greater than 100 µM.
Turning to `N=C(N)SCCc1cn2ccccc2n1`, the TGI in the experiment on OVCAR-3 ovarian, in the experiment with MOLT-4 leukemia, in the experiment with COLO 205 colon, with A549 NSCLC, in the experiment on ACHN renal and in the experiment on SF-268 CNS was greater than 100 µM throughout.
`CCOC(=O)/N=C(\N)SCc1ccccc1`: the TGI in the experiment with MOLT-4 leukemia, in the experiment on A498 renal, with A549 NSCLC, in the experiment with ACHN renal and in the experiment with SF-268 CNS was greater than 100 µM in each case.
For `O=c1ccccc2cccc(O)c12`, the TGI with OVCAR-3 ovarian, in the experiment with MOLT-4 leukemia, in the experiment with A498 renal, in the experiment with COLO 205 colon, in the experiment with A549 NSCLC and in the experiment with ACHN renal was greater than 100 µM throughout.
Turning to `N=C(c1ccccc1)N(O)C1CCCCC1`, the TGI with COLO 205 colon, in the experiment on A549 NSCLC and with SF-268 CNS was greater than 100 µM throughout.
